Results from ChEMBL document CHEMBL4610047, “Design, synthesis and anti-Alzheimer's disease activity study of xanthone derivatives based on multi-target strategy” (Bioorg Med Chem Lett, 2020).
Active and inactive are the calls of the source. The rule behind the calls is not given here.

How the values were obtained:
[1] = Metal chelating activity assessed as compound-Cu2+ complex formation by measuring stability constant at 10 uM in presence of CuCl2 after 30 mins by UV-visible spectrophotometric analysis
Cholinesterase = Cholinesterase (Equus caballus, UniProt P81908); experiment: Inhibition of equine serum BChE using butyrylthiocholine as substrate by Ellman's method
[2] = Metal chelating activity assessed as compound-Cu2+ complex formation by measuring band wavelength at 10 uM in presence of CuCl2 after 30 mins by UV-visible spectrophotometric analysis
Acetylcholinesterase = Acetylcholinesterase (Electrophorus electricus, UniProt O42275); experiment: Inhibition of electric eel AChE using acetylthiocholine iodide as substrate by Ellman's method
[3] = Metal chelating activity assessed as compound-Cu2+ complex stoichiometry ratio of 2:1 at 10 uM in presence of CuCl2 after 30 mins by UV-visible spectrophotometric analysis
[4] = target: Acetylcholinesterase (Electrophorus electricus) (UniProt O42275); experiment: Mixed type inhibition of electric eel AChE assessed as decrease in Vmax at 0.16 to 0.64 uM by reciprocal Lineweaver-Burk plot analysis
[5] = target: Acetylcholinesterase (Electrophorus electricus) (UniProt O42275); experiment: Mixed type inhibition of electric eel AChE assessed as increase in Km at 0.16 to 0.64 uM by reciprocal Lineweaver-Burk plot analysis

Acetylcholinesterase, sequence (O42275 whole entry): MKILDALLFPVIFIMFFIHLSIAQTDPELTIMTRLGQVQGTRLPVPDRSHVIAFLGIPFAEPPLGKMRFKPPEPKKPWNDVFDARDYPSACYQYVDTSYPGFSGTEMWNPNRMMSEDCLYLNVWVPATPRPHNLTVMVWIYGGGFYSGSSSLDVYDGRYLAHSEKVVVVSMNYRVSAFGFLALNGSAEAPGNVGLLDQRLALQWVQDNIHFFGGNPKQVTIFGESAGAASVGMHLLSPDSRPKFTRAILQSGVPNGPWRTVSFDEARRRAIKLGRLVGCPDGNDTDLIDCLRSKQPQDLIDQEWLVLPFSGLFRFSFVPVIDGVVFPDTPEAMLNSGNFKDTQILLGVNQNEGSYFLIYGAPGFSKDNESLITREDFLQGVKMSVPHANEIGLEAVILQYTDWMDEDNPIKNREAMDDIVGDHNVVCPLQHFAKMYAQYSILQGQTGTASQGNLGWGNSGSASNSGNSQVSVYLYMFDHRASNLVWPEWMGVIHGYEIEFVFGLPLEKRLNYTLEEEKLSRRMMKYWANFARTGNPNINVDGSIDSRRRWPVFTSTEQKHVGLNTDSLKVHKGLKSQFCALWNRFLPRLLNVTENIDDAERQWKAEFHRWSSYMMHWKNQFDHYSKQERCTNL
Cholinesterase, sequence (P81908 whole entry): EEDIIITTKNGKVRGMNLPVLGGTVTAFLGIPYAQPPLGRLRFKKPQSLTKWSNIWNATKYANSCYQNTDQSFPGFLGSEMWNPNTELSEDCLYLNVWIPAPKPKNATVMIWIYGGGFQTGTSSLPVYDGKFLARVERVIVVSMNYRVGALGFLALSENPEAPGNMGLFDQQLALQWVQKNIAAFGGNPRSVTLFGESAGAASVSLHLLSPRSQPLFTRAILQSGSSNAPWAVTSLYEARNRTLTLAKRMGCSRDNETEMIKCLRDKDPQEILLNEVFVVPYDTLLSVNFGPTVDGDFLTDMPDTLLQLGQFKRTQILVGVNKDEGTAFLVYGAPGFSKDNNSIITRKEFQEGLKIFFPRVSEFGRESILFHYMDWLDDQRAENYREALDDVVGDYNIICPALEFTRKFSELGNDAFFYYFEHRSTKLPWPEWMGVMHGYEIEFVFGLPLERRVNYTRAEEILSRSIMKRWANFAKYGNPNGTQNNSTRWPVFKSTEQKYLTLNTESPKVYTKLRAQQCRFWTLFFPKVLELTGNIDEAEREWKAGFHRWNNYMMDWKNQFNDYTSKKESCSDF
Acetylcholinesterase (Electrophorus electricus), sequence (O42275 24-633 limits assumed): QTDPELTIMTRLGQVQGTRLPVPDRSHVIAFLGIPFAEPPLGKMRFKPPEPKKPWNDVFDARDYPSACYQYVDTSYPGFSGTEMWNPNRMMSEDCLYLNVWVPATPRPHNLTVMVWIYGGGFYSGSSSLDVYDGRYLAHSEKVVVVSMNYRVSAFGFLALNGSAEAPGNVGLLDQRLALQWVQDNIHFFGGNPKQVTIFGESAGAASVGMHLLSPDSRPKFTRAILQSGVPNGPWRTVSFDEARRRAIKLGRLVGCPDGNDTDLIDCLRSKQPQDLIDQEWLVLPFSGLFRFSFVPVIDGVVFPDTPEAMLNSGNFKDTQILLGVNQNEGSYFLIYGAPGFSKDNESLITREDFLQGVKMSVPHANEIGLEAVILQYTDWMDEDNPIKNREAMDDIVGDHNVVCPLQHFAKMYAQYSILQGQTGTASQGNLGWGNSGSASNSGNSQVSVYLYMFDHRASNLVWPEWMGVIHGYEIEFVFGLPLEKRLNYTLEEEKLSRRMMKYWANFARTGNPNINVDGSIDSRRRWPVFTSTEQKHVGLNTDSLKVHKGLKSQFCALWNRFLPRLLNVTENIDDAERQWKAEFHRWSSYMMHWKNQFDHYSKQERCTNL

| SMILES | K [1] [×10⁵ No_unit] | IC50 (Cholinesterase) [µM] | Activity [2] | IC50 (Acetylcholinesterase) [µM] | Activity [3] | inhibition [4] | inhibition [5] |
| --- | --- | --- | --- | --- | --- | --- | --- |
| CN(C)CCOc1ccc2c(=O)c3c(O)cc(OCCN(C)C)cc3oc2c1 | 1.65 | 18 | Active | 2.47 | Active |  |  |
| O=c1c2ccc(OCCN3CCCC3)cc2oc2cc(OCCN3CCCC3)cc(O)c12 | 2.67 | 3.7 | Active | 0.328 | Active | Active | Active |
| O=c1c2ccc(OCCN3CCOCC3)cc2oc2cc(OCCN3CCOCC3)cc(O)c12 | 1.14 | > 300 | Active | 31.2 | Active |  |  |
| O=c1c2ccc(OCCN3CCCCC3)cc2oc2cc(OCCN3CCCCC3)cc(O)c12 | 2.16 | 4.02 | Active | 0.964 | Active |  |  |
